Experimental data as given in patent US10364226B2, “Pyridazinone compounds and uses thereof” (priority 2013, dated 2019).
pEC50, pIC50: −log10 of the molar value.

Columns and labels:
EN PA = EN PA (Influenza A virus, UniProt P15659); assay: EN PA FRET Inhibition Assay; format: biochemical; conditions: read-out: Potency
[1] = system: Influenza strain A549 A/WSN/33 (H1N1); assay: Influenza Antiviral Assay; format: cell-based, Influenza A virus; conditions: Influenza A virus, A549, 20 h, neuraminidase fluorescence readout, read-out: % Inhibition

Structure (SMILES) | pIC50 (EN PA) | pEC50 [1]
O=C(NC1(C(F)(F)F)CCCC1)c1nn(CC2(c3cccc(C(F)(F)F)c3)CCCC2)cc(O)c1=O [Compound 503] | 6.00 to 7.00 | > 4.70
CN(C)C(=O)c1nn(CC2(c3cccc(C(F)(F)F)c3)CCCC2)cc(O)c1=O [Compound 504] | ≤ 6.00 | 4.00 to 4.70
O=C(NCC(F)(F)F)c1nn(CC2(c3cccc(C(F)(F)F)c3)CCCC2)cc(O)c1=O [Compound 505] | 6.00 to 7.00 | > 4.70
CNC(=O)c1nn(CC2(c3cc(C(F)(F)F)cc(C(F)(F)F)c3)CCCC2)cc(O)c1=O [Compound 506] | 6.00 to 7.00 | > 4.70
O=C(NC1CC1)c1nn(CC2(c3cccc(C(F)(F)F)c3)CCCC2)cc(O)c1=O [Compound 507] | 6.00 to 7.00 | > 4.70
O=C(NCc1ccccc1)c1nn(CC2(c3cccc(C(F)(F)F)c3)CCCC2)cc(O)c1=O [Compound 509] | 6.00 to 7.00 | > 4.70
O=C(NCC1CC1)c1nn(CC2(c3cccc(C(F)(F)F)c3)CCCC2)cc(O)c1=O [Compound 510] | 6.00 to 7.00 | > 4.70
CNC(=O)c1nn(CC2(c3cccc(C(F)(F)F)c3)CCCC2)cc(O)c1=O [Compound 511] | 6.00 to 7.00 | > 4.70
CS(=O)(=O)NC(=O)c1nn(CC2(c3cccc(C(F)(F)F)c3)CCCC2)cc(O)c1=O [Compound 512] | 6.00 to 7.00 | > 4.70
O=C(NCc1ccc(Cl)c(Cl)c1)c1nn(CC2(c3cccc(C(F)(F)F)c3)CCCC2)cc(O)c1=O [Compound 513] | 6.00 to 7.00 | > 4.70
O=C(NC1CCCC1)c1nn(CC2(c3cccc(C(F)(F)F)c3)CCCC2)cc(O)c1=O [Compound 514] | 6.00 to 7.00 | > 4.70
O=C(NC1CCC1)c1nn(CC2(c3cccc(C(F)(F)F)c3)CCCC2)cc(O)c1=O [Compound 515] | 6.00 to 7.00 | < 4.00
O=C(NC1CCCCC1)c1nn(CC2(c3cccc(C(F)(F)F)c3)CCCC2)cc(O)c1=O [Compound 516] | 6.00 to 7.00 | > 4.70
O=C(Nc1ccccc1)c1nn(CC2(c3cccc(C(F)(F)F)c3)CCCC2)cc(O)c1=O [Compound 517] | 6.00 to 7.00 | > 4.70
CNC(=O)c1nn(-c2ccccc2-c2ccccc2-c2ccccc2)cc(O)c1=O [Compound 518] | 6.00 to 7.00 | > 4.70
CNC(=O)c1nn(-c2ccccc2-c2ccccc2C(C)C)cc(O)c1=O [Compound 519] | 6.00 to 7.00 | 4.00 to 4.70
O=C(NCc1ccc(Cl)cc1)c1nn(CC2(c3cccc(C(F)(F)F)c3)CCCC2)cc(O)c1=O [Compound 523] | 6.00 to 7.00 | > 4.70
Cc1ccc(CNC(=O)c2nn(CC3(c4cccc(C(F)(F)F)c4)CCCC3)cc(O)c2=O)cc1 [Compound 524] | 6.00 to 7.00 | > 4.70
COc1ccc(CNC(=O)c2nn(CC3(c4cccc(C(F)(F)F)c4)CCCC3)cc(O)c2=O)cc1 [Compound 525] | 6.00 to 7.00 | > 4.70
NC(=O)c1nn(CC2(c3cccc(C(F)(F)F)c3)CCCC2)cc(O)c1=O [Compound 602] | 6.00 to 7.00 | > 4.70
CNC(=O)c1nn(-c2ccccc2S(=O)(=O)c2ccccc2)cc(O)c1=O [Compound 603] | ≤ 6.00 | < 4.00
CNC(=O)c1nn(CCc2ccccc2OC)cc(O)c1=O [Compound 604] | ≤ 6.00 | < 4.00
O=C(NCc1ccccc1)c1nn(-c2ccccc2S(=O)(=O)c2ccccc2)cc(O)c1=O [Compound 605] | 6.00 to 7.00 | 4.00 to 4.70

Structure (SMILES) | pIC50 (EN PA) | pEC50 [1]
CNC(=O)c1nn(CCC2CCCCC2)cc(O)c1=O [Compound 606] | ≤ 6.00 | 4.00 to 4.70
CNC(=O)c1nn(CC(C)(C)c2ccc(C)cc2)cc(O)c1=O [Compound 607] | 6.00 to 7.00 | > 4.70
CNC(=O)c1nn(CC2(n3ccc4cccnc43)CCCC2)cc(O)c1=O [Compound 609] | > 7.00 | > 4.70
CNC(=O)c1nn(-c2ccccc2-c2ccccc2OC2CCCC2)cc(O)c1=O [Compound 610] | 6.00 to 7.00 | 4.00 to 4.70
CNC(=O)c1nn(-c2ccccc2-c2cccc(OC)c2)cc(O)c1=O [Compound 611] | ≤ 6.00 | < 4.00
CNC(=O)c1nn(-c2ccccc2-c2cc(OC)ccc2Cl)cc(O)c1=O [Compound 612] | ≤ 6.00 | 4.00 to 4.70
CNC(=O)c1nn(-c2ccccc2-c2ccc3[nH]ccc3c2)cc(O)c1=O [Compound 613] | ≤ 6.00 | < 4.00
CNC(=O)c1nn(CCc2cccc3ccccc23)cc(O)c1=O [Compound 614] | 6.00 to 7.00 | 4.00 to 4.70
CNC(=O)c1nn(CC2(c3cccc(C(F)(F)F)c3)CC2)cc(O)c1=O [Compound 621] | 6.00 to 7.00 | > 4.70
CNC(=O)c1nn(CC2(n3cc(C)c4cccnc43)CCCC2)cc(O)c1=O [Compound 622] | 6.00 to 7.00 | > 4.70
COc1cccc(CNC(=O)c2nn(CC3(c4cccc(C(F)(F)F)c4)CCCC3)cc(O)c2=O)c1 [Compound 624] | 6.00 to 7.00 | > 4.70
O=C(NCc1ccc2c(c1)OCO2)c1nn(CC2(c3cccc(C(F)(F)F)c3)CCCC2)cc(O)c1=O [Compound 625] | 6.00 to 7.00 | > 4.70
NC(=O)c1nn(CC2(c3cccc(C(F)(F)F)c3)CC2)cc(O)c1=O [Compound 626] | 6.00 to 7.00 | 4.00 to 4.70
O=C(Nc1ccccc1)c1nn(CC2(c3ccccc3)CCCC2)cc(O)c1=O [Compound 639] | 6.00 to 7.00 | 4.00 to 4.70
CNC(=O)c1nn(-c2ccccc2S(=O)(=O)c2cccc(Cl)c2)cc(O)c1=O [Compound 644] | 6.00 to 7.00 | < 4.00
CNC(=O)c1nn(CC(C)(C)c2cccc(C(F)(F)F)c2)cc(O)c1=O [Compound 645] | > 7.00 | > 4.70
Cn1cc(CNC(=O)c2nn(CC3(c4cccc(C(F)(F)F)c4)CCCC3)cc(O)c2=O)cn1 [Compound 646] | > 7.00 | > 4.70
Cc1cc(CNC(=O)c2nn(CC3(c4cccc(C(F)(F)F)c4)CCCC3)cc(O)c2=O)[nH]n1 [Compound 648] | > 7.00 | > 4.70
O=C(NCc1cnn(-c2ccc(F)cc2)c1)c1nn(CC2(c3cccc(C(F)(F)F)c3)CCCC2)cc(O)c1=O [Compound 649] | > 7.00 | > 4.70
CCn1cc(CNC(=O)c2nn(CC3(c4cccc(C(F)(F)F)c4)CCCC3)cc(O)c2=O)cn1 [Compound 650] | > 7.00 | > 4.70
CNC(=O)c1nn(Cc2ccccc2-c2ccccc2)cc(O)c1=O [Compound 654] | 6.00 to 7.00 | < 4.00
Cc1ccc(C2(Cn3cc(O)c(=O)c(C(=O)O)n3)CC2)cc1 [Compound 655] | > 7.00 | < 4.00
CNC(=O)c1nn(CC2(c3ccc(C)cc3)CC2)cc(O)c1=O [Compound 656] | 6.00 to 7.00 | < 4.00

Structure (SMILES) | pIC50 (EN PA) | pEC50 [1]
CNC(=O)c1nn(CC(c2ccccc2)C2CCCC2)cc(O)c1=O (centres unmarked) [Compound 658] | 6.00 to 7.00 | < 4.00
CNC(=O)c1nn(CC(c2ccccc2)C2CCCCC2)cc(O)c1=O (centres unmarked) [Compound 659] | 6.00 to 7.00 | < 4.00
CNC(=O)c1nn(CC(c2ccccc2)c2ccccc2)cc(O)c1=O [Compound 660] | 6.00 to 7.00 | < 4.00
Cc1cn(C2(Cn3cc(O)c(=O)c(C(=O)NC4CC4)n3)CCCC2)c2ncccc12 [Compound 661] | > 7.00 | > 4.70
CNC(=O)c1nn(CC2(n3cc(C)c4cccnc43)CCCC2)cc(OC(C)=O)c1=O [Compound 662] | > 7.00 | > 4.70
Cc1csc(CNC(=O)c2nn(CC3(c4cccc(C(F)(F)F)c4)CCCC3)cc(O)c2=O)c1 [Compound 663] | 6.00 to 7.00 | < 4.00
O=C(NCc1cccnc1)c1nn(CC2(c3ccccc3)CCCC2)cc(O)c1=O [Compound 664] | 6.00 to 7.00 | < 4.00
CNC(=O)c1nn(CC2(c3cccc(C(C)C)c3)CCCC2)cc(O)c1=O [Compound 665] | > 7.00 | > 4.70
CNC(=O)c1nn(CC2(c3cccc(Br)c3)CCCC2)cc(O)c1=O [Compound 666] | > 7.00 | > 4.70
O=C(NCc1ccc2[nH]ncc2c1)c1nn(CC2(c3cccc(C(F)(F)F)c3)CCCC2)cc(O)c1=O [Compound 669] | > 7.00 | < 4.00
CNC(=O)c1nn(CC2c3ccccc3CCc3ccccc32)cc(O)c1=O [Compound 670] | 6.00 to 7.00 | < 4.00
CNC(=O)c1nn(CC2(n3cc(-c4ccccc4)c4cccnc43)CCCC2)cc(O)c1=O [Compound 671] | 6.00 to 7.00 | > 4.70
CNC(=O)c1nn(CC2(c3cccc(-c4ccccc4)c3)CCCC2)cc(O)c1=O [Compound 674] | > 7.00 | > 4.70
O=C(NC1CC1)c1nn(CC2(c3ccccc3)CCCC2)cc(O)c1=O [Compound 676] | > 7.00 | > 4.70
O=C(NCC1CC1)c1nn(CC2(c3ccccc3)CCCC2)cc(O)c1=O [Compound 677] | > 7.00 | > 4.70
CNC(=O)c1nn(CC2(n3cc(C)c4cccnc43)CCCC2)cc(OC(=O)C(C)C)c1=O [Compound 678] | > 7.00 | > 4.70
CNC(=O)c1nn(CC2(n3cc(C)c4cccnc43)CCCC2)cc(OC(=O)C(C)(C)C)c1=O [Compound 679] | > 7.00 | > 4.70
CNC(=O)c1nn(CC2(n3cc(Br)c4cccnc43)CCCC2)cc(O)c1=O [Compound 680] | > 7.00 | > 4.70
CNC(=O)c1nn(CC2(n3cc(C(F)(F)F)c4cccnc43)CCCC2)cc(O)c1=O [Compound 681] | > 7.00 | > 4.70
O=C(NC1CC1)c1nn(CC2(n3cc(C(F)(F)F)c4cccnc43)CCCC2)cc(O)c1=O [Compound 682] | > 7.00 | > 4.70
O=C(O)c1nn(CC2(c3cccc(Br)c3)CCCC2)cc(O)c1=O [Compound 683] | > 7.00 | < 4.00
